Molecular target: T1, Grx (Lmo2344) (Listeria monocytogenes, UniProt Q8Y4T8)
T1 construct: CHYC active motif
T1 sequence (Q8Y4T8 1-88): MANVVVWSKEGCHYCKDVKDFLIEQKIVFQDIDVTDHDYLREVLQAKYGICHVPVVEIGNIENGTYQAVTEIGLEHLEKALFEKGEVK
Assay: insulin disulfide reduction, turbidity at […] nm
Type: biochemical
Conditions: electron donor, 1 mM DTT; 0.15 mM human insulin, pH 7.0, 2 mM EDTA; DTT also reduces insulin non-enzymatically

Structure (SMILES): OC(CS)C(O)CS (stereo not shown) [DTT]
- insulin disulfide reduction, turbidity at 650 nm: Using DTT as an electron donor, the recombinant Lmo2344 is able to catalyze the reduction

Source: paper PMC6844310, “Deletion of glutaredoxin promotes oxidative tolerance and intracellular infection in Listeria monocytogenes” (Virulence, 2019)
